Assay in all cases: Greenhouse pre-emergence GR15/GR85 selectivity test
Holding throughout (type): in vivo

In test [1] the test system is Quackgrass. The source says:
(§1) A good grade of top soil is placed in aluminum pans and compacted to a depth of three-eighths to one-half inch from the top of the pan. On the top of the soil is placed a number of seeds or vegetative propagules of various plant species. The soil required to level fill the pans after seeding or adding vegetative propagules is weighed into a pan. The soil and a known amount of the active ingredient applied in a solvent or as a wettable powder suspension are thoroughly mixed, and used to cover the prepared pans. […] As an alternative procedure, the overhead irrigation may be omitted. Observations are made about 2-3 weeks after seeding and treatment.
(§2) A further guide to the effectiveness of a chemical as a selective herbicide is the "selectivity factor" ("SF") for a herbicide in given crops and weeds. The selectivity factor is a measure of the relative degree of crop safety and weed injury and is expressed in terms of the GR15 /GR85 ratio, i.e., the GR15 rate for the crop divided by the GR85 rate for the weed, both rates in kg/ha (lb/A). In the tables below, selectivity factors are shown in parenthesis following the GR85 rate for each weed; the symbol "NS" indicates "non-selective". Marginal or undetermined selectivity is indicated by a dash (--).
(§3) These weeds are commonly associated with such major crops as corn and soybeans. […] The test procedure was the same as described for Tables II and III but modified by the application of an initial overhead irrigation equivalent to 1/4" (0.64 cm) rainfall; subsequent watering was accomplished by subirrigation. "NS" means non-selective within the test limits.
(§4) Unless otherwise noted; greenhouse tests in Table VI and in other tables below involved herbicide treatments by soil incorporation and an initial overhead irrigation followed by subirrigation as described above.

Test [2] relates to Yellow Nutsedge.
Text: as §1, §2, §3, §4

Test [3] deals with corn.
Text: (§5) A good grade of top soil is placed in aluminum pans and compacted to a depth of three-eighths to one-half inch from the top of the pan. On the top of the soil is placed a number of seeds or vegetative propagules of various plant species. The soil required to level fill the pans after seeding or adding vegetative propagules is weighed into a pan. The soil and a known amount of the active ingredient applied in a solvent or as a wettable powder suspension are thoroughly mixed, and used to cover the prepared pans. After treatment, the pans are given an initial overhead irrigation of eater, equivalent to one-fourth inch (0.64 cm) rainfall, then watered by subirrigation as need to give adequate moisture for germination and growth. As an alternative procedure, the overhead irrigation may be omitted. Observations are made about 2-3 weeks after seeding and treatment.
(§6) In the discussion and tables of data below, reference is made to herbicide application rates symbolized as "GR15 " and "GR85 "; these rates are given in kilograms per hectare (kg/ha) which are convertible into pounds per acre (lbs/A) by dividing the kg/ha rate by 1.12.
as §2
(§7) In Table IV pre-emergence herbicidal activity data are presented comparing the relative efficacy of the invention compounds and said prior art compounds as selective herbicides against the resistant and troublesome perennial weeds quackgrass and yellow nutsedge in soybeans and corn, respectively. These weeds are commonly associated with such major crops as corn and soybeans. The test data in Table IV were obtained under identical procedural conditions and represent two replicate runs (except for the compound of Example 9 which was present in one comparative test). The test procedure was the same as described for Tables II and III but modified by the application of an initial overhead irrigation equivalent to 1/4" (0.64 cm) rainfall; subsequent watering was accomplished by subirrigation. "NS" means non-selective within the test limits.
(§8) Additionally, pre-emergence herbicidal data from other tests have established that compounds according to this invention also selectively suppress quackgrass, yellow nutsedge and/or other weeds in one or more of the crops cotton, peanuts, bush beans and/or rape. For example, in Table VI are presented data showing the herbicidal selectivity of the compounds of Examples 1 and 2 against quackgrass in rape and snap beans. Unless otherwise noted; greenhouse tests in Table VI and in other tables below involved herbicide treatments by soil incorporation and an initial overhead irrigation followed by subirrigation as described above.

Test [4] deals with soybeans.
Text: as §5, §6, §2, §7, §8

In test [5] the test system is cotton. Conditions: cotton/yellow nutsedge, average of two replicates.
Text: as §5, §6, §2, §8
In one multi-crop test in the greenhouse, the compounds of Examples 1, 9, and 10 were tested against yellow nutsedge in cotton, soybeans, corn and rice; each compound was non-selective with respect to yellow nutsedge in rice. However, markedly high selectivities for yellow nutsedge in cotton, soybeans and corn were shown for each of the compounds in the test; the respective GR15 and GR85 rates for these compounds are shown in Table XII selectivity factors are shown in parenthesis after each crop.

Setting [6] is: quackgrass in corn, Table IV, Replicate #2.
Where [7] appears, read: yellow nutsedge in corn, Table IV, Replicate #1.
Setting [8] is: yellow nutsedge in corn, Table IV, Replicate #2.
Where [9] appears, read: yellow nutsedge in soybeans, Table IV, Replicate #1.
Setting [10] is: yellow nutsedge in soybeans, Table IV, Replicate #2.
The mark [11] stands for this setting: quackgrass in soybeans, Table V.
Setting [12] is: yellow nutsedge in corn, Table V.
[13] abbreviates: yellow nutsedge in soybeans, Table V.
Where [14] appears, read: in cotton, average of two replicates.

`CCOCCN(C(=O)CCl)c1ccccc1C(F)(F)F` [B, N-(ethoxyethyl)-2'-trifluoromethyl-2-chloroacetanilide, reference compound]: the GR85 in test [1] (Table IV, Replicate #1) came out at 0.56 Kg/Ha; in test [1] (Table IV, Replicate #2) it was 0.64 Kg/Ha; in test [2] (Table IV, Replicate #1), 0.47 Kg/Ha; in test [2] (Table IV, Replicate #2) it was 0.43 Kg/Ha. Further, the “selectivity factor (GR15/GR85)” value in test [1] (quackgrass in corn, Table IV, Replicate #1) is reported as 2; in test [1] (setting [6]), “NS (non-selective)”; in test [1] (quackgrass in soybeans, Table IV, Replicate #1), 3.5; in test [1] (quackgrass in soybeans, Table IV, Replicate #2) it was 3; in test [2] (setting [7]), 2.5; in test [2] (setting [8]), “NS (non-selective)”. The entries for the “selectivity factor (GR15/GR85)” value in test [2] (setting [9]) and in test [2] (setting [10]) were 4 and 4.5, respectively. For the same compound, the GR15 is on record as 1.2 Kg/Ha in test [3] (Table IV, Replicate #1) and 0.37 Kg/Ha in test [3] (Table IV, Replicate #2).

On to `COCCN(C(=O)CCl)c1ccccc1C(F)(F)F` [A, N-(methoxyethyl)-2'-trifluoromethyl-2-chloroacetanilide, reference compound], for which the GR85 in test [1] (Table IV, Replicate #1, extrapolated value) is 2.5 Kg/Ha; in test [1] (Table IV, Replicate #2) it was over 2.2 Kg/Ha; in test [2] (Table IV, Replicate #1) it was 1.2 Kg/Ha; in test [2] (Table IV, Replicate #2) it was 1.0 Kg/Ha. Moreover, the “selectivity factor (GR15/GR85)” value is given as “NS (non-selective)” in test [1] (setting [6]); over 2 in test [2] (setting [7]); 2 in test [2] (setting [8]); over 2 in test [2] (setting [9]); over 2 in test [2] (setting [10]). Further, the GR15 in test [3] (Table IV, Replicate #1) is reported as over 2.2 Kg/Ha; in test [3] (Table IV, Replicate #2), 2.2 Kg/Ha.

Turning to `COCCN(C(=O)CCl)c1c(C)cccc1C(F)(F)F` [C, N-(methoxyethyl)-2'-trifluoromethyl-6'-methyl-2-chloroacetanilide, reference compound], the GR85 in test [1] (Table V) and in test [2] (Table V) was 0.28 Kg/Ha each time. Moreover, the “selectivity factor (GR15/GR85)” value in test [1] (quackgrass in corn, Table V) is reported as 5; in test [1] (setting [11]) it was over 10; in test [2] (setting [12]) it was 5; in test [2] (setting [13]) it was over 10. The compound also showed a GR15 in test [3] (Table V) of 1.3 Kg/Ha.

As to `C#CCOCN(C(=O)CCl)c1c(C)cccc1C(F)(F)F` [Example 8, N--(propargyloxymethyl)-2'-trifluoromethyl-6'-methyl-2-chloroacetanilide], the GR85 worked out at 0.5 kg/ha in test [1] (both corn and soybeans); 0.95 kg/ha in test [2] (in corn); 0.95 kg/ha in test [2] (setting [14]); 0.5 kg/ha in test [2] (in soybeans). The “S.F. (GR15/GR85)” value in test [1] (in corn) is 4.5; in test [1] (in soybeans), 4.5; in test [2] (in corn), 2.5; in test [2] (setting [14]), 2; in test [2] (in soybeans), 4.5. Besides, the GR15 in test [3] (corn/quackgrass) is recorded as over 2.2 kg/ha; in test [3] (corn/yellow nutsedge), over 2.2 kg/ha; in test [4] (soybeans/quackgrass) it was over 2.2 kg/ha; in test [4] (soybeans/yellow nutsedge), 2.2 kg/ha; in test [5], 2.0 kg/ha.

As for `CCOCCN(C(=O)CCl)c1c(C)cccc1C(F)(F)F` [E, N-(ethoxyethyl)-2'-trifluoromethyl-6'-methyl-2-chloroacetanilide, reference compound], the GR85 in test [1] (Table V) is on record as 0.28 Kg/Ha; in test [2] (Table V), 0.22 Kg/Ha. Further, the “selectivity factor (GR15/GR85)” value in test [1] (quackgrass in corn, Table V) came out at 2.5; in test [1] (setting [11]) it was 3; in test [2] (setting [12]) it was 3; in test [2] (setting [13]), 4. For the same compound, in test [3] (Table V), the GR15 is on record as 0.67 Kg/Ha.

Consider `COCC(C)N(C(=O)CCl)c1c(C)cccc1C(F)(F)F` (stereo not shown) [D, N-(methoxyisopropyl)-2'-trifluoromethyl-6'-methyl-2-chloroacetanilide, reference compound], for which the GR85 in test [1] (Table V) is 1.7 Kg/Ha; in test [2] (Table V) it was 0.45 Kg/Ha. Also, the “selectivity factor (GR15/GR85)” value in test [1] (quackgrass in corn, Table V) is 1; in test [1] (setting [11]), over 1.5; in test [2] (setting [12]), 4; in test [2] (setting [13]) it was over 6. Besides, the GR15 in test [3] (Table V) is 2.0 Kg/Ha; in test [4] (Table V), over 2.8 Kg/Ha.

The values above are taken from patent publication US4731109A, “Herbicidal 2-haloacetanilides” (Monsanto Company, priority 1982, dated 1988).
